Experimental data from ChEMBL document CHEMBL1201862, “PubChem BioAssay data set” (2004).
Calls of active or inactive are those of the source. Rule as the data show it: actives have a measured IC50 and inactives only a lower limit.

These molecules were tested against Envelope glycoprotein gp160 (Human immunodeficiency virus 1, UniProt Q6QLK5) (assay: cell-free HIV fusion peptide-binding blockers – biochemical, uHTS, fluorescence dequenching, […] (AID 1986)).
Sequence of Envelope glycoprotein gp160 (Q6QLK5 whole entry, the tested form may be a part): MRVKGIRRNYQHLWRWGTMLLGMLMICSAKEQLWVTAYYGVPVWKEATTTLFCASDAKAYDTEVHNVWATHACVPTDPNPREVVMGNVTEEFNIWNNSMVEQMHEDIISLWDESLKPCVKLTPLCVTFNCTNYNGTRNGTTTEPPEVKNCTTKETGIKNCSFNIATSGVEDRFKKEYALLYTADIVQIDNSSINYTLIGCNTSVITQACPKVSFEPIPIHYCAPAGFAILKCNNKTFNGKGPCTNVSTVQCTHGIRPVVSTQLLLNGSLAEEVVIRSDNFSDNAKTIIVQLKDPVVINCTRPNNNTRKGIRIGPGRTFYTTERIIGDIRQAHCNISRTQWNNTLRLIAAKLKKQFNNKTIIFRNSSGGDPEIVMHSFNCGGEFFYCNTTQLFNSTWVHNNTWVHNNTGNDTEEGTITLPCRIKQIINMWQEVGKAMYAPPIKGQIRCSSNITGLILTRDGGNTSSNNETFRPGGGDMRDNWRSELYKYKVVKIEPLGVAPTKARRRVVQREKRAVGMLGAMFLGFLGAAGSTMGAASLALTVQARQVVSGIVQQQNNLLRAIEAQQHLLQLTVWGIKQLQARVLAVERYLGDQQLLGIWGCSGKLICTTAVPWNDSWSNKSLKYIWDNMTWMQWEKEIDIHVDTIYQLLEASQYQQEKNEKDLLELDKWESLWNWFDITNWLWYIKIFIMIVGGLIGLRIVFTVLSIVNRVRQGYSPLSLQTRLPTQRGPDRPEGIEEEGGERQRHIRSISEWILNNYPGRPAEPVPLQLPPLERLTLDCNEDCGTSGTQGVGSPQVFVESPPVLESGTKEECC
In the case of `CCOc1cc(/C=N/Nc2cccc(C(=O)O)c2)ccc1OC(=O)c1ccccc1`, the IC50 is reported as 23.4 µM (active). In the case of `CCc1nnc(NS(=O)(=O)c2ccc(NC(=S)NC(=O)/C=C/c3ccc(C(C)C)cc3)cc2)s1`, the IC50 is reported as 12.1 µM (active). For `O=C(O)c1ccc(N/N=C/c2ccc(-c3cccc(Cl)c3)o2)cc1`, the IC50 was 22.2 µM (active).
